This test has as its system chol-DH. Kind of test: Variation of the redox mediators used, chol-DH activity by the HPLC method. The conditions noted are these: relative chol-DH activity with the mediator as artificial electron acceptor, 37° C., pH 7.0. On the set-up: reference not given here. It is filed as biochemical, Rhodococcus spec. Here is the method: The enzyme sample was purified as described in example 2a) and subsequently its property of converting cholesterol was evaluated with the following methods.
An enzyme test was used to determine the chol-DH activity by quantifying the cholestenone formed in which the enzyme reaction proceeded for a defined time period before it was stopped by adding a protein-denaturing agent. Afterwards the amount of product was determined and expressed as μmol per minute and volume unit of the enzyme solution (=volume activity) or weight unit of the protein (=specific activity).
The cholestenone formed was quantified by HPLC analysis after stopping the chol-DH reaction:
One unit is the enzyme activity which oxidizes 1 μmol cholesterol per minute to cholestenone under the test conditions (37° C., pH 7.0). In this case the chol-DH activity is derived from the difference between the cholestenone concentrations of the test mixture and the blank (see above). [formula]
Apart from methyl-1,4-benzoquinone other redox mediators are suitable as electron acceptors for chol-DH. The chol-DH activity was determined by the HPLC method. Various redox mediators are listed in Table 1 that can serve as artificial electron acceptors for chol-DH.

`O=Nc1ccc(N(CCO)CCO)cc1` [N,N-bis-2(hydroxyethyl)p-nitrosoaniline]: the “chol-DH [%]” value is given as 45%. With `O=C1C=CC(=O)C=C1` [p-benzoquinone] the figure was 109%.

`CN(C)c1ccc(N=O)cc1` [N,N-dimethy1-4-nitrosoaniline]: the “chol-DH [%]” value was determined as 95%. With `CC1=CC(=O)C=CC1=O` [methyl-1,4-benzoquinone], the “chol-DH [%]” value is 100%.

As to `O=C1C(Cl)=CC(=Nc2ccc(O)cc2)C=C1Cl` [2,6-dichlorophenol-indophenol], the “chol-DH [%]” value is given as 52%. As to `O=C1C(Cl)=C(Cl)C(=O)C(Cl)=C1Cl` [tetrachloro-p-benzoquinone], the “chol-DH [%]” value amounted to 27%.

These data come from patent US5856156A, “Microbial cholesterol dehydrogenase, process for its production and use” (Boehringer Mannheim GmbH, priority 1994, dated 1999).
